Laboratory results from PMC6848912 (British Journal of Clinical Pharmacology, 2019).

Assays:
[1] = Population pharmacokinetic analysis; type: in vivo
[2] = cited from earlier work
[3] = Inc. data on file, cited from earlier work
[4] = in combination with carboplatin + paclitaxel; cited from earlier work
[5] = concurrent administration of carboplatin + paclitaxel
[6] = nonparametric bootstrap of final PPK model

SMILES: NS(=O)(=O)OC[C@@H]1C[C@@H](n2ccc3c(N[C@H]4CCc5ccccc54)ncnc32)C[C@@H]1O [pevonedistat, Pevonedistat]
- average increase in pevonedistat exposure (AUC) [1, 5]: 79%
- average increase in pevonedistat exposure (AUC), fold [1, 5]: 1.79 fold
- impact of race, sex, age, tumour type, mild or moderate renal impairment (CrCL ≥30 mL/min), mild hepatic impairment on pevonedistat PK ([1]; covariate analysis): had no impact on pevonedistat PK
- IIV_CL (interindividual variability), typical value ([1]; final PPK model): 36.6 %CV
- IIV_Q, typical value ([1]; final PPK model): 60.5 %CV
- IIV_Vc, typical value ([1]; final PPK model): 36.6 %CV
- IIV_Vp, typical value ([1]; final PPK model): 36.9 %CV
- Albumin on Q (exponent), typical value ([1]; final PPK model, (ALB/40)^θ13): 1.45
- BSA on Q (exponent), typical value ([1]; final PPK model, set the same as BSA on CL): 1.33
- BSA on Vp (exponent), typical value ([1]; final PPK model, set the same as BSA on Vc): 1.39
- BSA on Vc (exponent), typical value ([1]; final PPK model, set the same as BSA on Vp): 1.39
- Vd ([1]; human, plasma, intravenous): 117 L
- Albumin on Q, bootstrap median [1, 6]: 1.45
- BSA on Q, bootstrap median [1, 6]: 1.33
- BSA on Vc, bootstrap median [1, 6]: 1.39
- BSA on Vp, bootstrap median [1, 6]: 1.39
- IIV_CL, bootstrap median [1, 6]: 35.9 %CV
- IIV_Q, bootstrap median [1, 6]: 60.2 %CV
- IIV_Vc, bootstrap median [1, 6]: 36.6 %CV
- IIV_Vp, bootstrap median [1, 6]: 36.7 %CV
- Q, bootstrap median [1, 6]: 22 L/h
- Vc, bootstrap median [1, 6]: 115 L
- Vp, bootstrap median [1, 6]: 121 L
- dose linearity of PK (AUC from time 0 to 24 hours vs dose) ([2]; dose from 25 to 278 mg/m^2): linear
- drug accumulation ([2]; once-daily dosing for 5 consecutive days or intermittent dosing): little or no notable drug accumulation
- renal clearance contribution to total systemic clearance ([3]; ref Millennium Pharmaceuticals): < 5%
- renal elimination pathway, share of total plasma clearance ([3]; ref Takeda Millennium Pharmaceuticals): 2.5%
- maximum tolerated dose (MTD) / recommended Phase II dose [4]: 20 mg/m^2
